In paper PMC7477548, “Prediction of an MMP-1 inhibitor activity cliff using the SAR matrix approach and its experimental validation” (Scientific Reports, 2020):

Columns and labels:
[1] = molecular target: T1, MMP-1 (Homo sapiens, UniProt P03956); test: MMP-1 inhibitory colorimetric assay (MMP1 Inhibitor Screening Assay Kit ab139443); assay type: biochemical; conditions: for IC50: colorimetric assay, A412nm, mean ± standard deviation of triplicated samples; for inhibitory activity against MMP-1 in words: at a 100 µM concentration
T1 construct: purchased abcam ab139443
T1 sequence (P03956 100-269 limits assumed): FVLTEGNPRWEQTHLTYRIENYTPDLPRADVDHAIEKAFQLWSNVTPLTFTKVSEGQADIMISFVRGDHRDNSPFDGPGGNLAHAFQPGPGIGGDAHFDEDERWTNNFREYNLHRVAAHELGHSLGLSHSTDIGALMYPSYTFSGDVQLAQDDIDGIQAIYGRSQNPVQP
Method: We next examined the inhibitory activity of the synthesized compounds 3–6 against MMP-1 using a colorimetric assay. This assay was performed using the MMP-1 Inhibitor Screening Assay Kit (ab139443) according to the manufacturer’s protocols. The reaction was started by the addition of the diluted MMP-1 substrate. The continuous absorbance of the wells was measured at A412nm using a microplate reader.
MMP-1 inhibitory assay was performed using the assay kit according to the manufacturer’s protocol. A 96-well clear microplate (1/2 volume), 30.6 U/µL of MMP-1 enzyme, MMP-1 substrate (25 mM in DMSO), and colorimetric assay buffer were contained in MMP1 Inhibitor Screening Assay Kit (ab139443, abcam). 2-[(2-Methylpropyl)[(4-methoxyphenyl)sulfonyl]amino]acetohydroximic acid (NNGH) was used as a positive control of an MMP-1 inhibitor. The MMP-1 substrate and DMSO solution of compound were thawed at room temperature. A compound (10 mM in DMSO) was diluted at 1/200 in assay buffer and brought to 37 °C. Also, the MMP-1 substrate was diluted at 1/200 in assay buffer and brought to 37 °C. The MMP-1 enzyme was diluted at 1/25 in assay buffer and warmed up to 37 °C as soon as the assay was started. After the assay buffer was pipetted appropriately into each well, 20 µL of the prepared MMP-1 enzyme solution and the desired concentration of test inhibitor solutions (20 µL; final concentrations: 0.1–100 µM) were added to the wells. The microplate was incubated for 30 min at 37 °C. The 10 µL of the prepared MMP-1 substrate solution was added into each well to allow the reaction start. The absorbance of the wells was measured at A412nm using a microplate reader every 1 min, and data analysis was performed.

SMILES	IC50 [1] [µM]	melting point [°C]	fold higher MMP-1 inhibitory activity (fold lower IC50) of compound 4 relative to compound 3 ([1]; ratio of IC50 values, compound 3 vs compound 4) [fold]	inhibitory activity against MMP-1 in words [1]
C[C@H](C(=O)NO)N1CC[C@@](C)(c2ccccc2)C1=O [Compound 5, (R)-N-hydroxy-2-((S)-3-methyl-2-oxo-3-phenylpyrrolidin-1-yl)propanamide]	1.54 ± 0.08			
C[C@H](C(=O)NO)N1CC[C@@](C)(c2cccc(C(F)(F)F)c2)C1=O [Compound 6, (R)-N-hydroxy-2-((S)-3-methyl-2-oxo-3-(3-(trifluoromethyl)phenyl)pyrrolidin-1-yl)propanamide]	11.1 ± 0.5			
C[C@H](C(=O)NO)N1CC[C@](C)(c2ccc(C(F)(F)F)cc2)C1=O [4′, (R)-N-hydroxy-2-((R)-3-methyl-2-oxo-3-(4-(trifluoromethyl)phenyl)pyrrolidin-1-yl)propanamide]	> 100	105 to 107		did not display significant inhibitory activity
C[C@H](C(=O)NO)N1CC[C@@](C)(c2ccc(C(F)(F)F)cc2)C1=O [Compound 4, (R)-N-hydroxy-2-((S)-3-methyl-2-oxo-3-(4-(trifluoromethyl)phenyl)pyrrolidin-1-yl)propanamide]	0.18 ± 0.03		60	

The next lines start with results.

IC50 [1] [µM]	melting point [°C]	fold higher MMP-1 inhibitory activity (fold lower IC50) of compound 4 relative to compound 3 ([1]; ratio of IC50 values, compound 3 vs compound 4) [fold]	SMILES	inhibitory activity against MMP-1 in words [1]
> 100	137 to 138		C[C@H](C(=O)NO)N1CC[C@](C)(c2ccc(-c3ccccc3)cc2)C1=O [3′, (R)-2-((R)-3-([1,1′-biphenyl]-4-yl)-3-methyl-2-oxopyrrolidin-1-yl)-N-hydroxypropanamide]	did not display significant inhibitory activity
11.5 ± 1.3	160 to 162		C[C@H](C(=O)NO)N1CC[C@@](C)(c2ccc(-c3ccccc3)cc2)C1=O [Compound 3, (R)-2-((S)-3-([1,1′-biphenyl]-4-yl)-3-methyl-2-oxopyrrolidin-1-yl)-N-hydroxypropanamide]	
